Reference: patent US4179441A, “Fungidal and herbicidal 2-substituted-3-oxa-3aλ^4, 4-dithia-6-halo-1,5-diazapentalene” (Chevron Research Company, priority 1977, dated 1979)
Read-outs that look alike come from different tables or passages of the source.

Legend:
Aspergillus niger = test: Mycelia Inhibition; format: cell-based; details: mycelial inhibition, 25° C., 24 hours
Rhizoctonia solani = test: Mycelia Inhibition; format: cell-based; details: mycelial inhibition, 25° C., 24 hours
Pythium ultimum = test: Mycelia Inhibition; format: cell-based; details: mycelial inhibition, 25° C., 24 hours
Phytophthora infestans = test: whole plant or invertebrate; format: in vivo; details: in Solanum lycopersicum, 168 h, read-out: Tomato Late Blight % Control
Alternaria solani = test: Tomato Early Blight; format: in vivo; details: 288 h, read-out: Tomato Early blight % Control
Fusarium moniliforme = test: Mycelia Inhibition; format: cell-based; details: mycelial inhibition, 25° C., 24 hours
Erysiphe polygoni = test: Powdery Mildew (bean seedlings); format: in vivo; details: 240 h, 250 ppm spray on bean seedlings, about 10 days, relative to untreated check plants
Excerpt: The powdery mildew test was made using bean seedlings (var. Bountiful) with well-developed primary leaves. The pathogen was Erysiphe polygoni. The bean seedlings were sprayed with a 250 ppm solution of the test compound in an acetone-water mixture containing a nonionic emulsifier. The treated plants were inoculated one day after spray application of the test compound with the pathogen. […] The rate of infection on the leaves was made after about 10 days. The percent disease control provided by a given test compound was based on the disease reduction relative to untreated check plants.

Septoria apii = details: in vivo
Botrytis cinerea = Botrytis cinerea control (detached horsebean leaves); format: in vivo; details: 3 to 5 days
Protocol: Compounds of the invention were tested for Botrytis cinerea control using detached, well-developed primary leaves of a 4-6 week old horsebean plant. […] The leaves were allowed to dry while the filter paper was kept moist by adding water as required. The treated leaves were then inoculated with the spores of Botrytis cinerea fungus grown on potato. The plate was covered after inoculation and kept at 23.5° C. The filter-paper lining of the plate was kept saturated with water throughout the test. The rate of disease incidence was determined in 3 to 5 days, when the disease symptoms were fully evident on non-treated check leaves. […]

Wild Oats (Avena fatua) [1] = test: Post-emergent herbicidal test; format: in vivo; details: 0-to-100 scale
[2] = system: Mustard (Brassica arvensis); test: Post-emergent herbicidal test; format: in vivo; details: 0-to-100 scale
[3] = system: Watergrass (Echinochloa crusgalli); test: Post-emergent herbicidal test; format: in vivo; details: 0-to-100 scale
Wild Oats (Avena fatua) [4] = test: Pre-Emergent herbicidal test; format: in vivo; details: 33 micrograms/cm^2, 3 weeks, 0-to-100 scale, 100 = complete kill
Protocol: (§1) Pre-emergent herbicidal tests on representative compounds of the invention were made using the following method:
(§2) An acetone solution of the test compound was prepared by mixing 750 mg of the compound, 220 mg of a nonionic surfactant and 25 ml of acetone. This solution was added to approximately 125 ml of water containing 156 mg of surfactant.
(§3) Seeds of the test vegetation were planted in a pot of soil and the test solution was sprayed uniformly onto the soil surface at a dose of 33 micrograms/cm^2. The pot was watered and placed in a greenhouse. […] At the end of this period, the herbicidal effectiveness of the compound was rated based on the physiological observations. A 0-to-100 scale was used, 0 representing no phytotoxicity, 100 representing complete kill.

[5] = system: Mustard (Brassica arvensis); test: Pre-Emergent herbicidal test; format: in vivo; details: 33 micrograms/cm^2, 3 weeks, 0-to-100 scale, 100 = complete kill
Protocol: as §1, §2, §3

[6] = system: Lambsquarter (Chenopodium album); test: Pre-Emergent herbicidal test; format: in vivo; details: 33 micrograms/cm^2, 3 weeks, 0-to-100 scale, 100 = complete kill
Protocol: as §1, §2, §3

[7] = system: Crabgrass (Digitaria sanguinalis); test: Pre-Emergent herbicidal test; format: in vivo; details: 33 micrograms/cm^2, 3 weeks, 0-to-100 scale, 100 = complete kill
Protocol: as §1, §2, §3

[8] = system: Watergrass (Echinochloa crusgalli); test: Pre-Emergent herbicidal test; format: in vivo; details: 33 micrograms/cm^2, 3 weeks, 0-to-100 scale, 100 = complete kill
Protocol: as §1, §2, §3

[9] = system: Lambsquarter (Chenopodium album); test: Post-emergent herbicidal test; format: in vivo; details: 0-to-100 scale
[10] = system: Crabgrass (Digitaria sanguinalis); test: Post-emergent herbicidal test; format: in vivo; details: 0-to-100 scale
[11] = 250 ppm spray, inoculated one day later, based on untreated check plants

Compound	Aspergillus niger, micrograms/cm^2 for 99% control of the fungus (Aspergillus niger) [micrograms/cm^2]	Rhizoctonia solani, micrograms/cm^2 for 99% control of the fungus (Rhizoctonia solani) [micrograms/cm^2]	Pythium ultimum, micrograms/cm^2 for 99% control of the fungus (Pythium ultimum) [micrograms/cm^2]	pest or weed control at 250 ppm (Phytophthora infestans) [%]	pest or weed control at 250 ppm (Alternaria solani; [11]) [%]	Fusarium moniliforme, micrograms/cm^2 for 99% control of the fungus (Fusarium moniliforme) [micrograms/cm^2]	pest or weed control at 250 ppm (Erysiphe polygoni) [%]	also measured
Oc1ccccc1C1=NC2=S(O1)SN=C2Cl (stereo not shown) [Compound 13]	0.98	0.5	> 1.7	27	51	> 1.7	–	–
FC(F)(F)c1cccc(C2=NC3=S(O2)SN=C3Cl)c1 (stereo not shown) [Compound 4]	> 1.7	0.65	> 1.7	–	–	> 1.7	80	Celery Late Blight % Control (Septoria apii): 23%
ClCC1=NC2=S(O1)SN=C2Cl (stereo not shown) [Compound 5, 2-chloromethyl-3-oxa-3aλ^4,4-dithia-6chloro-1,5-diazapentalene]	1.1	0.38	0.12	81	73	> 1.7	–	–
ClC1=NSS2=C1N=C(C(Cl)(Cl)Cl)O2 (stereo not shown) [Compound 14]	–	–	–	–	21	–	–	–
ClC1=NSS2=C1N=C(CI)O2 (stereo not shown) [Compound 9, 2-iodomethyl-3-oxa-3aλ^4,4-dithia-6-chloro-1,5-diazapentalene]	0.52	0.6	0.12	62	81	0.82	–	Botrytis Cinerea, micrograms/cm^2 for 99% control of the fungus (Botrytis cinerea): 0.37 micrograms/cm^2; Celery Late Blight % Control (Septoria apii): 71%
ClC1=NSS2=C1N=C(C(Cl)=C(Cl)Cl)O2 (stereo not shown) [Compound 23, 2-trichlorovinyl-3-oxa-3aλ^4,4-dithia-6-chloro-1,5-diazapentalene]	–	–	–	98	–	–	95	–
ClC1=NSS2=C1N=C(c1ccc(Cl)c(Cl)c1)O2 (stereo not shown) [Compound 1]	–	–	–	60	39	–	–	–
ClC1=NSS2=C1N=C(COc1ccc(Cl)cc1Cl)O2 (stereo not shown) [Compound 29]	–	–	–	–	69	–	37	Herbicidal Effectiveness - Post, O (Wild Oats (Avena fatua) [1]): 20; Herbicidal Effectiveness - Post, M [2]: 100; Herbicidal Effectiveness - Post, W [3]: 20; Herbicidal Effectiveness - Pre, O (Wild Oats (Avena fatua) [4]): 0; Herbicidal Effectiveness - Pre, M [5]: 100; Herbicidal Effectiveness - Pre, L [6]: 100; Herbicidal Effectiveness - Pre, C [7]: 97; Herbicidal Effectiveness - Pre, W [8]: 95; Herbicidal Effectiveness - Post, L [9]: 97; Herbicidal Effectiveness - Post, C [10]: 20
ClC1=NSS2=C1N=C(CSCc1ccc(Cl)cc1)O2 (stereo not shown) [Compound 11]	0.46	0.5	> 1.7	93	–	> 1.7	–	–
N#CSCC1=NC2=S(O1)SN=C2Cl (stereo not shown) [Compound 20, 2-thiocyanatomethyl-3-oxa-3aλ^4,4-dithia-6-chloro-1,5-diazapentalene]	0.6	0.33	–	–	–	> 1.7	–	Botrytis Cinerea, micrograms/cm^2 for 99% control of the fungus (Botrytis cinerea): 0.88 micrograms/cm^2
ClC1=NSS2=C1N=C(CSc1ccc(Cl)cc1)O2 (stereo not shown) [Compound 10, 2-(4-chlorophenylthio-methyl)-3-oxa-3aλ^4,4-dithia-6-chloro-1,5-diazapentalene]	0.52	1.2	> 1.7	81	–	> 1.7	–	–
ClC1=NSS2=C1N=C(COc1ccc(Cl)cc1)O2 (stereo not shown) [Compound 25]	–	–	–	–	–	–	29	Herbicidal Effectiveness - Post, O (Wild Oats (Avena fatua) [1]): 0; Herbicidal Effectiveness - Post, M [2]: 85; Herbicidal Effectiveness - Post, W [3]: 0; pest or weed control at 250 ppm (Alternaria solani): 88%; Herbicidal Effectiveness - Pre, O (Wild Oats (Avena fatua) [4]): 0; Herbicidal Effectiveness - Pre, M [5]: 95; Herbicidal Effectiveness - Pre, L [6]: 90; Herbicidal Effectiveness - Pre, C [7]: 70; Herbicidal Effectiveness - Pre, W [8]: 20; Herbicidal Effectiveness - Post, L [9]: 85; Herbicidal Effectiveness - Post, C [10]: 0
Fc1ccccc1C1=NC2=S(O1)SN=C2Cl (stereo not shown) [Compound 2]	–	–	–	93	–	–	35	Botrytis Cinerea, micrograms/cm^2 for 99% control of the fungus (Botrytis cinerea): 1.6 micrograms/cm^2
ClC1=NSS2=C1N=C(c1ccco1)O2 (stereo not shown) [Compound 8, 2-(2-furyl)-3-oxa-3aλ^4,4-dithia-6-chloro-1,5-diazapentalene]	0.49	0.34	0.29	–	56	0.95	–	Botrytis Cinerea, micrograms/cm^2 for 99% control of the fungus (Botrytis cinerea): 0.15 micrograms/cm^2
O=[N+]([O-])c1ccc(C2=NC3=S(O2)SN=C3Cl)cc1 (stereo not shown) [Compound 7]	–	–	–	90	23	–	–	–
ClC1=NSS2=C1N=C(COc1cc(Cl)ccc1Cl)O2 (stereo not shown) [Compound 27]	–	–	–	–	–	–	–	Herbicidal Effectiveness - Post, O (Wild Oats (Avena fatua) [1]): 0; Herbicidal Effectiveness - Post, M [2]: 80; Herbicidal Effectiveness - Post, W [3]: 0; Herbicidal Effectiveness - Pre, O (Wild Oats (Avena fatua) [4]): 0; Herbicidal Effectiveness - Pre, M [5]: 87; Herbicidal Effectiveness - Pre, L [6]: 82; Herbicidal Effectiveness - Pre, C [7]: 55; Herbicidal Effectiveness - Pre, W [8]: 55; Herbicidal Effectiveness - Post, L [9]: 90; Herbicidal Effectiveness - Post, C [10]: 90
ClC1=NSS2=C1N=C(c1cc(Cl)cc(Cl)c1)O2 (stereo not shown) [Compound 16]	–	–	–	–	–	–	23	–
ClC1=NSS2=C1N=C(c1ccc(Cl)cc1)O2 (stereo not shown) [Compound 3]	–	–	–	98	–	–	76	Botrytis Cinerea, micrograms/cm^2 for 99% control of the fungus (Botrytis cinerea): 1.1 micrograms/cm^2
ClC1=NSS2=C1N=C(c1ccccc1)O2 (stereo not shown) [Compound 6]	–	–	–	93	–	–	100	pest or weed control at 250 ppm (Alternaria solani): 75%
N#CSc1cccc(C2=NC3=S(O2)SN=C3Cl)c1 (stereo not shown) [Compound 22]	–	–	–	–	–	–	35	–
ClC1=NSS2=C1N=C(c1c(Cl)cccc1Cl)O2 (stereo not shown) [Compound 15]	–	–	–	–	–	–	–	Botrytis Cinerea, micrograms/cm^2 for 99% control of the fungus (Botrytis cinerea): 1.6 micrograms/cm^2
ClC1=NSS2=C1N=C(c1cccs1)O2 (stereo not shown) [Compound 12]	1.2	0.5	> 1.7	89	68	> 1.7	54	Botrytis Cinerea, micrograms/cm^2 for 99% control of the fungus (Botrytis cinerea): 1.4 micrograms/cm^2
O=[N+]([O-])c1ccc(Cl)cc1C1=NC2=S(O1)SN=C2Cl (stereo not shown) [Compound 17]	–	–	–	80	–	–	–	–
ClC1=NSS2=C1N=C(c1ccccc1I)O2 (stereo not shown) [Compound 28]	–	–	–	75	–	–	69	–
ClC1=NSS2=C1N=C(C1CC1)O2 (stereo not shown) [Compound 21, 2-cyclopropyl-3-oxa-3aλ^4,4-dithia-6-chloro-1,5-diazapentalene]	–	–	–	97	23	–	–	–
